{"source": "patent US8431165B2", "about": "“Medicament for treatment of cancer and other diseases” (Swing Aerobics Licensing, Inc., priority 2004, dated 2013)", "origin": "cited, not measured here", "details": "adult men and women, mean+SD"}
{"compound": "CC/C=C\\C/C=C\\C/C=C\\CCCCCCCC(=O)O", "note": "[alpha-linolenic acid]", "values": [{"measurement": "average estimated conversion of alpha-linolenic acid to docosahexaenoic acid", "result": "3.6±3.8", "unit": "%"}, {"measurement": "average estimated conversion of alpha-linolenic acid to n-3 LC-PUFA metabolites", "result": "17.3±12.8", "unit": "%"}]}
